Reference: patent US12213966B2, “Methods of reducing plasma level of macrophage migratory inhibitory factor in patients” (priority 2020, dated 2025)

Experiments:
[1] = in vivo; cited from earlier work
[2] = test system: MIF; assay: Open-label biomarker study in ALS subjects: serum MIF level before and after ibudilast; assay type: in vivo, human; conditions: 19 ALS subjects who completed the study
Protocol: This was a multi-center, open-label study with a 6 weeks Screening Phase, 36 weeks Treatment Phase, and a Follow-up Phase 4 weeks after the last dose. Ibudilast was orally administered 50 mg b.i.d. for a total daily dose of 100 mg/day.
The objectives of the Study were (i) to measure the impact of ibudilast on [11C]-PBR28 uptake in the motor cortices and brain stem measured by positron emission tomography (PET) imaging at 24 weeks; (ii) to measure the impact of ibudilast on several markers of neuro-inflammation measured by blood biomarkers; and (iii) to evaluate safety and tolerability.
Out of the 46 patients screened, eleven (11) individuals were screen failures. Total of the 35 enrolled subjects were enrolled. Of the 35 enrolled subjects, 16 subjects (45.7%) terminated the study early, and 19 subjects completed the trial. Of these 16 early study withdrawals, 11 (68.8%) were attributed to AEs and 5 (31.2%) were attributed to consent withdrawn.
Serum samples for the 19 subjects who completed the study were evaluated for MIF level before treatment and after treatment with ibudilast. • Mean (SD) pre-treatment serum MIF=422,989 (233,440) pg/ml • Mean (SD) post-treatment serum MIF=300,922 (113,843) pg/ml • Mean (SE) change/month=−19, 845 (8934) pg/ml (p=0.03)

[3] = test system: migration inhibitory factor (MIF); assay: Randomized, double-blind, placebo-controlled study in COVID-19 subjects at risk for ARDS: plasma MIF level
Protocol: The study consisted of a Screening Phase followed by a Treatment and Follow-up Phase. Following the Screening Phase, if the subject met eligibility criteria, subject was administered treatment with ibudilast or placebo. Subjects received ibudilast 100 mg/d (50 mg b.i.d) or placebo every day for 7 days. Upon completion of the 7-day Treatment Phase, subject was followed-up at Day 14 and at Day 28 post baseline.
The following screening assessments were performed upon signing the ICF: inclusion/exclusion criteria review, physical examination, assess vital signs and O2 use, clinical status using the NIAID scale, ECG, draw blood for plasma cytokines that include: migration inhibitory factor (MIF), interleukin 1-beta (IL-1β), interleukin 6 (IL-6), tumor necrosis factor (TNF-α), and C-reactive protein (CRP). Pharmacokinetic (PK) samples, complete blood count (CBC), comprehensive metabolic panel (CMP), D-dimer, and coagulation tests were also be drawn.
On Day 1 (Baseline) of the Treatment Phase, hospitalized subjects were treated with ibudilast (oral, 50 mg (5 capsules) b.i.d) or placebo for a 7-day period. Subjects underwent study-related procedures including physical examination, vital signs, clinical status assessment using the NIAID scale, O2 use, ECG, blood collection of biomarkers, PK, CBC, CMP, D-dimer and coagulation and information on adverse events and concomitant medications were recorded.
The Follow-up Phase consisted of two visits, Day 14 (±3 d) and Day 28 (±3 d). • Day 14 (in-patient): On Day 14, conducted physical examination, clinical status, vital signs and O2 use, ECG, CBC, CMP, D-dimer, and coagulation tests, biomarkers, AE and conmed review, and recorded survival status. • Day 28 (telephone follow-up if patient was no longer hospitalized) On Day 28, clinical status and survival status were recorded.

[4] = COVID-19 subject A, ibudilast oral 50 mg b.i.d. for 7 days
[5] = COVID-19 subject B, ibudilast oral 50 mg b.i.d. for 7 days
[6] = COVID-19 subject C, ibudilast oral 50 mg b.i.d. for 7 days
[7] = COVID-19 subject D, ibudilast oral 50 mg b.i.d. for 7 days
[8] = mean of 4 COVID-19 subjects, ibudilast oral 50 mg b.i.d. for 7 days

In the case of `CC(C)C(=O)c1c(C(C)C)nn2ccccc12` [ibudilast, 2-methyl-1-(2-(1-methylethyl)pyrazolo(1,5-a)pyridin-3-yl)1-propanone], the CNS penetration [1] is listed as “good CNS penetration”, the “Mean (SD) post-treatment serum MIF” value ([2]; after ibudilast oral 50 mg b.i.d. (100 mg/day), 36 weeks Treatment Phase) is listed as 300,922 (113,843) pg/ml and the “Mean (SD) pre-treatment serum MIF” value ([2]; before treatment) is listed as 422,989 (233,440) pg/ml. The “Difference of mean change of MIF level between ibudilast-treated group and placebo group” value ([3]; 4 ibudilast vs 4 placebo COVID-19 subjects, p value=0.00552) was 17277 pg/mL, the “Plasma MIF level pre-treatment, Subject A” value ([3]; COVID-19 subject A, ibudilast-treated group, before treatment) was 25267 pg/mL and the “Plasma MIF level difference (post minus pre), Subject A” value [3, 4] was -11130 pg/mL. The “Plasma MIF level post-treatment, Subject A” value [3, 4] was 14137 pg/mL, the “Plasma MIF level pre-treatment, Subject B” value ([3]; COVID-19 subject B, ibudilast-treated group, before treatment) was 21130 pg/mL and the “Plasma MIF level difference (post minus pre), Subject B” value [3, 5] was -1497 pg/mL. The “Plasma MIF level post-treatment, Subject B” value [3, 5] was 19633 pg/mL, the “Plasma MIF level pre-treatment, Subject C” value ([3]; COVID-19 subject C, ibudilast-treated group, before treatment) was 17763 pg/mL and the “Plasma MIF level difference (post minus pre), Subject C” value [3, 6] was -12037 pg/mL. The “Plasma MIF level post-treatment, Subject C” value [3, 6] was 5726 pg/mL, the “Plasma MIF level pre-treatment, Subject D” value ([3]; COVID-19 subject D, ibudilast-treated group, before treatment) was 27005 pg/mL and the “Plasma MIF level difference (post minus pre), Subject D” value [3, 7] was -18433 pg/mL. For the same compound, the “Plasma MIF level post-treatment, Subject D” value [3, 7] was 8572 pg/mL, the “Mean pre-treatment plasma MIF level” value ([3]; mean of 4 COVID-19 subjects, ibudilast-treated group, before treatment) was 22791.3 pg/mL and the “Mean change MIF level” value [3, 8] was -110774.3 pg/mL. For the same compound, the “Mean post-treatment plasma MIF level” value [3, 8] was 12017 pg/mL and the “Mean change MIF level” value ([3]; mean of 4 COVID-19 subjects, ibudilast oral 50 mg b.i.d. for 7 days, listed as Ibudilast) was -10774.3 pg/mL.
